Results on 2 compounds are retold here after patent publication US20230332103A1, “Methods and Compositions for Generating Human Forebrain Neural Progenitor Cells and for Maturation Thereof to Parvalbumin+ Interneurons” (Trailhead Biosystems Inc., priority 2021, published 2023).

In experiment [1] the test system is forebrain-committed neural stem cells (stage 1 neural stem cells). In words: factor criticality analysis (dynamic profile analysis) of stage 2 recipe. Format: cell-based, human. Here is the method:
To assess the impact of the elimination of each validated factor, dynamic profile analysis was used and compared the expression level of genes of interest in absence of each finalized factor while others are present.
In the stage 2 recipe, each of the four finalized factors were removed while the other three factors remained present and expression levels of NKX2-1, PAX6 and NKX2-2 were assessed compared to presence of all four factors. The results are summarized in FIG. 13A-B. Absence of PD0325901 reduced the levels of NKX2-1 and NKX2-2 while increasing PAX6 from 5000 to 3200, 100 to 0 and 0 to 5000, respectively. […] Removing XAV939 reduced the levels of NKX2-1 from 5000 to 3000, while increasing both PAX6 and NKX2-2 to 10000 and 200, respectively. Another observation was the interaction between XAV939 and Purmorphamine. In the absence of XAV939, the impact of Purmorphamine on NKX2-1 became negative and, as it is shown in interaction plot of FIG. 14, the level of NKX2-1 is higher when both factors are present.

The test system of experiment [2] is human pluripotent stem cells. Nature of the experiment: additional HD-DoE experiment for stage 1 (forebrain differentiation from pluripotency), optimized for FEZF2. The class given is cell-based. The following applies: for impact on expression of FEZF2: dynamic profile, FIG. 6; for factor contribution on expression of FEZF2: positive impact, additional stage 1 experiment optimized for FEZF2, FIG. 5. As for the experimental part: To identify the recipe for stage 1 of differentiation, 96 different combinations of effectors generated using Design-of-Experiments compression through D-optimality were robotically prepared. The effector combinations were prepared in a basal media and were subsequently added to the cells, which were then allowed to differentiate. Three days later RNA extraction was performed, and gene expression was obtained using quantitative PCR analysis. The data were normalized and modeled using partial least squares regression analysis to the effector design, resulting in the generation of gene-specific models, which after model tuning for maximal Q2 predictive power, provided explanation of the effectors ability to control the expression of individual genes, combinatorially, and individually. Solutions within the tested space could then be explored to address desirability.
To further enhance the conditions for forebrain differentiation from pluripotency, an additional HD-DoE experiment was performed. Additional gene regulatory models were obtained that were used for preparation of the differentiation protocol. The factors in this experiment included LDN193189, PD173074, BLU9931, Purmorphamine, SC79, MK2206, ZM336372, PD0325901, CHIR99021, XAV939, UCLA-GP130, Tofacitinib and GO6983. […] Dynamic profile analysis was also used to assess the interaction between the effectors.

Experiment [3] has as its system human pluripotent stem cells. In words: HD-DoE 12-factor experiment for stage 1 recipe, gene expression by quantitative PCR after 3 days. Format: cell-based. The note with it: for factor contribution on expression of SIX3: model optimized for maximal expression of SIX3, 3-day treatment; for factor contribution on expression of FEZF2: model optimized for maximum expression of FEZF2. The text has this: This example utilizes a method of High-Dimensional Design of Experiments (HD-DoE), as previously described in Bukys et al. (2020) […] 23:101346. The method employs computerized design geometries to simultaneously test multiple process inputs and offers mathematical modeling of a deep effector/response space. The method allows for finding combinatorial signaling inputs that control a complex process, such as during cell differentiation. It allows testing of multiple plausible critical process parameters, as such parameters impact output responses, such as gene expression. Because gene expression provides hallmark features of the phenotype of, for example, a human cell, the method can be applied to identify, and understand, which signaling pathways control cell fate. In the current example, the HD-DOE method was applied with the intent to find conditions for induction of […] neural progenitor-expressed genes, directly from the pluripotent stem cell state. To develop the recipe for each stage, the impact of agonists and antagonists of multiple signaling pathways (herein called effectors) on the expression of two sets of 53 pre-selected genes, after a 3-day treatment, has been tested and modeled. These effectors are small molecules or proteins that are commonly used during stepwise differentiation of stem cells to specific fates. Choice of the effectors were based on current literature on neural induction in forebrain region of developing brain and differentiation of stem cells to neural progenitors. To test the effectors, experiments with at least 8 factors were designed that can assess the response of cells to 48 or more different combinations of effectors in a range of concentrations. To analyze the models, we focused on expression of genes involved in development and patterning of the anterior neuroectoderm and forebrain including OTX2 (Hoch et al. (2015) Cell Reports 12:482-494), SIX3 (Lagutin et al. (2003) Genes & Development 17:368-379) and FEZF2 (Zhang et al. (2014) Development 141:4794-[…]). At later stages we focused on dorsoventral patterning of telencephalon and gene expressed in ventral forebrain including NKX2-1 and absence of PAX6 which is a dorsal forebrain marker (Stoykova et al. (2000) J. Neurosci. 20:8042-8050). The impact of each effector on gene expression level is defined by a parameter called factor contribution that is calculated for each effector during the modeling. To identify the recipe for stage 1 of differentiation, 96 different combinations of effectors generated using Design-of-Experiments compression through D-optimality were robotically prepared. The effector combinations were prepared in a basal media and were subsequently added to the cells, which were then allowed to differentiate. Three days later RNA extraction was performed, and gene expression was obtained using quantitative PCR analysis. […] Solutions within the tested space could then be explored to address desirability. Optimizing for maximal expression of SIX3 at 3300 and FEZF2 1355 expression values led to robust solutions. This model was derived from testing 12 effectors including AGN193109, LDN193189, CHIR99021, XAV939, IGF2, Purmorphamine, 4-oxo-RA, TTNPB, SR11237, FGF8, PD0325901 and […]. […] The model was also optimized for maximum expression of FEZF2 separately at 3576 expression value to find any additional factors that can boost expression of forebrain genes. […] To find the set of factors that have the potential to optimize all 3 genes in this experiment, a new assessment was done through dynamic profile analysis with focus on maximal expression of OTX2, FEZF2 and SIX3.

The subject of experiment [4] is forebrain-committed neural stem cells (stage 1 neural stem cells). Nature of the experiment: HD-DoE 12-factor experiment for stage 2 recipe, optimized for NKX2-1. Format: cell-based, human. The following applies: model maximized for NKX2-1 / dynamic profile, FIG. 7 and 8. The essentials:
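Forebrain-committed neural stem cells treated for 3 days after stage 1 with combinations of 12 factors (LDN193189, BMP7, PD0325901, MK2206, A8301, XAV939, CHIR99021, purmorphamine, SANT-1, AGN193109, TTNPB, GSI-XX). Response scored as maximal NKX2-1 and minimal PAX6 expression.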

Where [5] appears, read: dynamic profile analysis, FIG. 4.

With `c1ccc2c(-c3cnn4cc(-c5ccc(N6CCNCC6)cc5)cnc34)ccnc2c1` [LDN193189], in experiment [1] (stage 2 recipe, other three factors present, 0 with all four factors), the “expression level of PAX6 in the absence of the effector” value is on record as “below 0”. For the same compound, the “expression level of NKX2-2 in the absence of the effector” value in experiment [1] (stage 2 recipe, other three factors present, 100 with all four factors) is “below 0”. The “expression level of NKX2-1 in the absence of the effector” value in experiment [1] (stage 2 recipe, other three factors present, 5000 with all four factors) was “did not significantly change”. Moreover, in experiment [2], the “impact on expression of FEZF2” value is “positive impact” and the “factor contribution on expression of FEZF2” value is 18. Moreover, in experiment [3] (FIG. 2 legend, model optimized for maximum expression of SIX3 as printed), the “factor contribution, important input for high expression of SIX3” value turned out to be 24.9. Also, the “impact on expression of OTX2” value in experiment [3] (setting [5]) is recorded as “positive impact”. In addition, in experiment [3] (positive impact, model of maximum expression of OTX2), the “factor contribution on expression of OTX2” value was found to be 8. In experiment [3] (positive impact), the “factor contribution on expression of SIX3” value was determined as 16 and the “factor contribution on expression of FEZF2” value amounted to 25. For the same compound, the “impact on expression of NKX2-1” value in experiment [4] is “increase its expression level”.

Turning to `c1ccc2c(Oc3nc(Nc4ccc(N5CCOCC5)cc4)c4ncn(C5CCCCC5)c4n3)cccc2c1` [Purmorphamine], in experiment [1] (interaction between XAV939 and Purmorphamine, FIG. 14), the “impact on NKX2-1 in the absence of XAV939” value is reported as “negative”. Also, in experiment [2], the “impact on expression of FEZF2” value was “positive impact” and the “factor contribution on expression of FEZF2” value is reported as 11. Also, in experiment [3] (setting [5]), the “impact on expression of FEZF2” value was “positive impact”, the “impact on expression of OTX2” value is listed as “negative effect” and the “impact on expression of SIX3” value was “positive impact”. In addition, in experiment [3] (positive impact), the “factor contribution on expression of SIX3” value is 5 and the “factor contribution on expression of FEZF2” value was determined as 7. For the same compound, in experiment [4], the “impact on expression of NKX2-1” value is recorded as “increase its expression level”.
